Laboratory results taken from PMC4376459, “CXCR3 antagonist VUF10085 binds to an intrahelical site distinct from that of the broad spectrum antagonist TAK-779” (British Journal of Pharmacology, 2015).
Substitutions are numbered along the chain they refer to.

Assays:
CXCR3 H202A (ECL2) = target: T1, CXCR3 H202A (ECL2) (Homo sapiens, UniProt P49682, H202A); assay: Whole-cell 125I-CXCL11 binding assay, L1.2 transfectants; settings: 0.1 nM 125I-CXCL11, read-out: IC50 ligand binding (mean ± SEM)
T1 construct: expressed in transfected cells; host or cells: murine pre-B cell line L1.2, transient transfection
T1 sequence (P49682 1-368 H202A): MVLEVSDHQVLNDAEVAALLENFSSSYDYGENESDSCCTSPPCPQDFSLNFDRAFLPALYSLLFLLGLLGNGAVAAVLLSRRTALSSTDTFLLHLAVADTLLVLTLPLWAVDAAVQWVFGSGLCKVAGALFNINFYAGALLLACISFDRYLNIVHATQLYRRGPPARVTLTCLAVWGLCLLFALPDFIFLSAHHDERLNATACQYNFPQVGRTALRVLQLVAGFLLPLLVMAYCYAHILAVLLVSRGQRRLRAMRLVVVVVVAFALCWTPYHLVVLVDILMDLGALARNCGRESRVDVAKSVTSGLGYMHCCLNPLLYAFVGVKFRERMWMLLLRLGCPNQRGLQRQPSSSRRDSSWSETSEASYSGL

CXCR3 Y308A = target: T2, CXCR3 Y308A (Homo sapiens, UniProt P49682, Y308A); assay: Chemotaxis assay, L1.2 transfectants migrating to CXCL11; type: cell-based; settings: 30 nM CXCL11
T2 construct: expressed in transfected cells; host or cells: murine pre-B cell line L1.2, transient transfection
T2 sequence (P49682 1-368 Y308A): T1 sequence (P49682 1-368 H202A) with A202H, Y308A

CXCR3 N132A = target: T3, CXCR3 N132A (Homo sapiens, UniProt P49682, N132A); assay: Whole-cell 125I-CXCL11 binding assay, L1.2 transfectants; settings: maximum concentration of CXCL11
T3 construct: expressed in transfected cells; host or cells: murine pre-B cell line L1.2, transient transfection
T3 sequence (P49682 1-368 N132A): T1 sequence (P49682 1-368 H202A) with N132A, A202H
Method: (§1) A previously described pcDNA3 plasmid containing human wild type (WT) CXCR3 cDNA with an HA epitope tag encoded at the N terminus (Meiser et al., [2008]) was used as a template for the generation of point mutants by PCR using the QuikChange II site-directed mutagenesis kit (Stratagene, Amsterdam, the Netherlands). All constructs were verified by DNA sequencing (Eurofins MWG Operon, Ebersberg, Germany) before use. L1.2 cells were transiently transfected by electroporation with 1 μg of vector DNA/10^6 cells at 330V, 975μF and incubated overnight in medium supplemented with 10 mM of sodium butyrate to enhance gene expression.
(§2) Whole-cell binding assays on transiently transfected L1.2 cells were performed as described previously (Vaidehi et al., [2009]) using 0.1 nM ^125I-CXCL11 (Perkin Elmer) and increasing concentrations of unlabeled CXCL11 or antagonist. Cell-associated radioactivity was counted in a Canberra Packard Cobra 5010 gamma counter (Canberra Packard, Pangebourne, UK). Curve fitting and subsequent data analysis was carried out using the program PRISM (GraphPad Software, Inc., San Diego, CA, USA) and IC50 values were obtained by non-linear regression analysis. In all experiments, each data point was assayed in duplicate, with each individual experiment repeated three times. Background binding levels obtained in the presence of a 1000–3000 molar excess of unlabelled chemokine were subtracted from each data point and data are presented as the percentage of counts obtained in the absence of competing ligand. KD values and the number of binding sites per cell were calculated from homologous binding curves prepared in Graph Pad Prism (La Jolla, CA, USA) as previously described (Nedjai et al., [2011]).

CXCR3 Y271A = target: T4, CXCR3 Y271A (Homo sapiens, UniProt P49682, Y271A); assay: as above; settings: maximum concentration of CXCL11
T4 construct: expressed in transfected cells; host or cells: murine pre-B cell line L1.2, transient transfection
T4 sequence (P49682 1-368 Y271A): T1 sequence (P49682 1-368 H202A) with A202H, Y271A
Method: as §1, §2

CXCR3 F207A = target: T5, CXCR3 F207A (Homo sapiens, UniProt P49682, F207A); assay: as above; settings: maximum concentration of CXCL11
T5 construct: expressed in transfected cells; host or cells: murine pre-B cell line L1.2, transient transfection
T5 sequence (P49682 1-368 F207A): T1 sequence (P49682 1-368 H202A) with A202H, F207A
Method: as §1, §2

Molecule	IC50 (CXCR3 H202A (ECL2)) [µM]	increase in IC50 value, chemotaxis (CXCR3 Y308A; Y308A versus WT)	IC50 (CXCR3 Y308A; Y308A, read-out: IC50 chemotaxis (mean ± SEM)) [µM]	displacement of 125I-CXCL11 by unlabelled CXCL11 (CXCR3 N132A)	displacement of 125I-CXCL11 by unlabelled CXCL11 (CXCR3 Y271A)	displacement of 125I-CXCL11 by unlabelled CXCL11 (CXCR3 F207A)
Cc1ccc(-c2ccc3c(c2)C=C(C(=O)Nc2ccc(C[N+](C)(C)C4CCOCC4)cc2)CCC3)cc1.[Cl-] [TAK-779, N,N-dimethyl-N-[4-[[[2-(4-methylphenyl)-6,7-dihydro-5H-benzocyclohepten-8-yl]-carbonyl]amino]benzyl] tetrahydro-2H-pyran-4-aminium chloride]	25.3 ± 10.2	twofold	41.4 ± 22.6	–	–	–
CXCL11: recombinant human chemokine, CXCR3 agonist, purchased from PeproTech	–	–	–	unable to displace 50%	unable to displace 50%	unable to displace 50%
